Measurements from ChEMBL document CHEMBL1201862, “PubChem BioAssay data set” (2004).
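Grown in 96-well plates, cells were treated for 48 hours with each compound at five concentrations. Insufficient inhibition: endpoint recorded as highest concentration tested. GI50 is the concentration that inhibits growth by half.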 The source made the active and inactive calls. No stated cut-off is given here; in the data, active = GI50 up to about 1.1 µM and inactive = higher.

Assays:
Test in all cases: growth of human tumour cells (NCI), 48 h
[1] = tested on: OVCAR-8
[2] = tested on: SNB-78
[3] = tested on: COLO 205
[4] = tested on: HOP-92
[5] = tested on: SK-MEL-5
[6] = tested on: NCI-H23
[7] = tested on: UO-31
[8] = tested on: HCT-116
[9] = tested on: HCC 2998
[10] = tested on: SF-268
[11] = tested on: RPMI-8226
[12] = tested on: M19-MEL
[13] = tested on: SF-539
[14] = tested on: EKVX
[15] = tested on: XF498
[16] = tested on: SK-OV-3
[17] = tested on: U-251
[18] = tested on: SW-620
[19] = tested on: SNB-75
[20] = tested on: K562
[21] = tested on: LXFL 529
[22] = tested on: SK-MEL-2
[23] = tested on: Malme-3M
[24] = tested on: M14
[25] = tested on: IGROV-1
[26] = tested on: DLD-1
[27] = tested on: NCI-H522
[28] = tested on: SF-295
[29] = tested on: LOX IMVI
[30] = tested on: 786-0
[31] = tested on: KM12
[32] = tested on: HL-60
[33] = tested on: OVCAR-3
[34] = tested on: MOLT-4
[35] = tested on: UACC-257
[36] = tested on: NCI-H226
[37] = tested on: UACC-62
[38] = tested on: KM-20L2
[39] = tested on: HT-29
[40] = tested on: ACHN
[41] = tested on: HOP-62
[42] = tested on: RXF 393
[43] = tested on: DMS-114
[44] = tested on: CCRF-CEM
[45] = tested on: A498
[46] = tested on: OVCAR-5
[47] = tested on: SK-MEL-28
[48] = tested on: NCI-H460
[49] = tested on: RXF 631
[50] = tested on: TK-10
[51] = tested on: A549
[52] = tested on: DMS-273
[53] = tested on: SR
[54] = tested on: SNB-19

Measured: GI50

Cc1cccc(C)c1NC(=O)C(=O)C(C(=O)c1ccccc1-c1ccccc1)C1OC(=O)c2ccccc21 (configuration not stated)
inactive: [1] 29.6 µM | [2] 24.8 µM | [3] 19.2 µM | [4] 16.7 µM | [5] 17.8 µM | [6] 14.3 µM | [7] 25.3 µM | [8] 14.6 µM | [9] 15.1 µM | [10] 23.7 µM | [11] 15.8 µM | [12] 15.6 µM | [13] 14.8 µM | [14] 26.3 µM | [15] 15.9 µM | [16] 27.6 µM | [17] 14.2 µM | [18] 26.4 µM | [19] 22 µM | [20] 30.4 µM | [21] 13.5 µM | [22] 16.2 µM | [23] 12.5 µM | [24] 14.7 µM | [25] 25.6 µM | [26] 17.5 µM | [27] 10.9 µM | [28] 31.3 µM | [29] 19 µM | [30] 18.2 µM | [31] 20.9 µM | [32] 21 µM | [33] 17.1 µM | [34] 18.1 µM | [35] 22.6 µM | [36] 11.6 µM | [37] 17.4 µM | [38] 28.8 µM | [39] 37.1 µM | [40] 43.9 µM | [41] 16.9 µM | [42] 12.8 µM | [43] 13.7 µM | [44] 19.4 µM | [45] 18.7 µM | [46] 23.2 µM | [47] 22.9 µM | [48] 27.3 µM | [49] 31.8 µM | [50] 26.7 µM | [51] 25.6 µM

CC(=O)O[C@H]1CCC(C)=CCC[C@@]2(C)C(CC[C@@H]2[C@@H](C)/C=C/C(C)C)c2ccc(cc2C(=O)O)C1 (some centres not stated)
inactive: [1] 4.06 µM | [2] 3.33 µM | [4] 2.84 µM | [6] 2.63 µM | [7] 2.03 µM | [8] 2.94 µM | [12] 4.18 µM | [14] 11 µM | [16] 3.6 µM | [17] 2.54 µM | [20] 3.21 µM | [52] 3.84 µM | [24] 5.02 µM | [25] 2.96 µM | [27] 2.49 µM | [28] 2.9 µM | [31] 2.21 µM | [53] 2.59 µM | [32] 1.73 µM | [34] 1.92 µM | [54] 3.04 µM | [35] 4.59 µM | [37] 1.95 µM | [38] 3.67 µM | [39] 3.93 µM | [40] 3.6 µM | [41] 2.45 µM | [42] 3.11 µM | [43] 4.49 µM | [44] 3.13 µM | [45] 6.35 µM | [46] 3.28 µM | [47] 5.05 µM | [48] 3.12 µM | [49] 7.4 µM | [50] 3.45 µM
